A short description of data set [1]: Absorption coefficient at a wavelength of 365 nm. The class given is physicochemical. The settings on record: at 365 nm. From the text: The absorption coefficient can be determined by the following formula.
α365: absorption coefficient at a wavelength of 365 nm [mL/(g·cm)]
A365: absorbance at a wavelength of 365 nm
c: solution concentration [g/mL]
d: optical path length (of quartz cell) [cm]
In addition, when calculating the absorption coefficient, an absorbance converted from the measurement result of the transmittance may also be used.
T365: light transmittance at a wavelength of 365 nm [%]

The next data set in a line: Aqueous solubility. The class given is physicochemical. As for the experimental part: From such a viewpoint, the metal corrosion inhibitor preferably has an aqueous solubility at 25° C. of 20 g/L or more, more preferably 50 g/L or more, particularly preferably 100 g/L or more.

≈ marks a conversion by molar mass, not a printed value.

In turn, `c1c[nH]nn1` [Example D-1, 1,2,3-triazole] registered an absorption coefficient in data set [1] of 0.3 mL/g/cm. The aqueous solubility (in general, the dissolved amount per volume that the medium holds) in the data set “Aqueous solubility” was > 1,000 g/L.

Consider `Sc1nnc(S)s1` [Example D-4, 2,5-dimercapto-1,3,4-thiadiazole, reference compound], for which the absorption coefficient in data set [1] turned out to be 90 mL/g/cm. Also, in the data set “Aqueous solubility” (water, 25 °C), the concentration in solution (solubility) came to 20 mg/mL (≈ 133 mM).

As for `S=c1[nH]c2ccccc2s1` [Example D-5, mercaptobenzothiazole, reference compound], the absorption coefficient in data set [1] amounted to 65 mL/g/cm. This compound also gave an aqueous solubility in the data set “Aqueous solubility” of 0.3 g/L (≈ 1.79 mM).

As to `c1ccc2[nH]nnc2c1` [Example D-3, 1,2,3-benzotriazole], the absorption coefficient in data set [1] was 0.8 mL/g/cm. The same compound gave an aqueous solubility in “Aqueous solubility” of 20 g/L (≈ 168 mM).

Turning to `c1nc[nH]n1` [Example D-2, 1,2,4-triazole], the absorption coefficient in data set [1] turned out to be 0.3 mL/g/cm. Also, the aqueous solubility in “Aqueous solubility” is reported as > 1,000 g/L.

The values above are taken from patent publication US20200123422A1, “Photocurable Adhesive Sheet, Image Display Device Constituent Laminate, Image Display Device Production Method and Method for Preventing Corrosion of Conductive Member” (Mitsubishi Chemical Corporation, priority 2017, published 2020).
